Columns and labels:
[1] = target: T1, human recombinant GR (Homo sapiens, UniProt P04150); experiment: Human GR fluorescence polarisation (FP) binding assay (Example 23)
T1 construct: purchased PanVera P2812
T1 sequence (P04150 1-777): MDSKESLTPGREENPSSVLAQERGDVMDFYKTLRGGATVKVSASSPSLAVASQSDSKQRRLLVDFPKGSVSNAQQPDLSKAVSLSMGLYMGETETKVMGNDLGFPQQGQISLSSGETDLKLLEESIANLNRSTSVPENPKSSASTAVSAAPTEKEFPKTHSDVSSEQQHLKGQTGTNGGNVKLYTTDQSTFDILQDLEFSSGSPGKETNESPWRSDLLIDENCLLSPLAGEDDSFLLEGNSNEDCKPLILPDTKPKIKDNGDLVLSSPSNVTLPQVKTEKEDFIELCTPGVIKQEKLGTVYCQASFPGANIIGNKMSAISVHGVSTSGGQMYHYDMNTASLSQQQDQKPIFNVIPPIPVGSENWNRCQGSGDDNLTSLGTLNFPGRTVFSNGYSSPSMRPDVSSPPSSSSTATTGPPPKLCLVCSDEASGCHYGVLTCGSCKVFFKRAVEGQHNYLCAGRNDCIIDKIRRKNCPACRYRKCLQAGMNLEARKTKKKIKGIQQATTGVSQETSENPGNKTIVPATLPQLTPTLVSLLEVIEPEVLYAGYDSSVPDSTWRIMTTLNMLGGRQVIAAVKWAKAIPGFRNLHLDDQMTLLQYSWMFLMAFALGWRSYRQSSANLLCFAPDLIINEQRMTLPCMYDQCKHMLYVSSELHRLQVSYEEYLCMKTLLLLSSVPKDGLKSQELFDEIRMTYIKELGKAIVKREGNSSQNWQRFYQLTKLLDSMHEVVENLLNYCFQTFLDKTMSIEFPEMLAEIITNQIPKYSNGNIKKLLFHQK
Procedure: The following is a description of a FP assay for measuring compound inhibition of labelled glucocorticoid binding to the human recombinant GR.
The binding affinity of test compounds was determined using a FP binding assay using human recombinant GR (PanVera P2812) and a fluorescent labelled glucocorticoid ligand (Fluorome GS Red) (PanVera P2894). The presence of inhibitors prevents the formation of a GS Red/GR complex resulting in a decrease in the measured polarisation value. The change in polarisation value in the presence of test compounds is used to calculate the binding affinity of the compound for GR.
This assay was performed in 384 well, black, round-bottom, polypropylene micro titre plates in a final volume of 20 μl. The assay contained 5 μl 1 nM GR (final concentration), 5 μl 0.5 nM Fluorome GS Red (final concentration) in the presence of 10 μl test compounds. Positive control wells (high polarisation) receive, 10 μl 2% (v:v) DMSO vehicle (1% (v/v) final concentration)+5 μl 1 nM GR and 5 μl 0.5 nM Fluorome GS Red. […] Assay blank background wells (used for normalisation) receive 15 μl 1×GS screening buffer+5 μl GR.
For the IC50 determination (concentration of compound that displaces 50% of the bound GS Red), compounds were tested at eight different concentrations in duplicate in two independently performed experiments. Compounds were prepared as solubilised solids at 10 mM in DMSO. On the day of assay, an 8 point half-log serial dilution (55 μl DMSO+25 μl compound solution) was prepared. A 1:50 dilution (1 μl compound solution+49 μl 1×GR screening buffer) was prepared for each compound. The compounds were prepared at 2× final assay concentration.
The plates were mixed and incubated for 4 hour at room temperature. FP was measured using an Envision Excite plate reader with 535 nm excitation and 590 nm emission interference filters.
Milli-polarisation (mP) values were calculated using the below equation—
where S and P are assay blank background subtracted fluorescence units, G=G-factor (1.07).
Compound IC50 values were calculated by plotting a [compound] v. % inhibition curve and fitting the data to a 4-parameter logistic fit equation.
Reagents. 10×GR screening buffer (100 mM potassium phosphate pH 7.4, 200 mM Na2MoO4, 1 mM EDTA, 20% (v/v) DMSO). To prepare 1×GR screening buffer, combine 1 ml 10×GR screening buffer (PanVera P2814)+1 ml stabilising peptide (PanVera P2815)+7.95 ml 4° C. MQ water. Add 50 μl 1M DTT, vortex and place on ice until use.

[2] = target: T2, GR (TAT induction in HepG2 cells) (Homo sapiens, UniProt P04150); experiment: cell-based; details: read-out: GR functional Ki
T2 construct: host or cells: HepG2 (human hepatocellular carcinoma)
T2 sequence (P04150 1-777): T1 sequence (P04150 1-777)
Procedure: Glucocorticoid mediated activation of TAT occurs by transactivation of glucocorticoid response elements in the TAT promoter by glucocorticoid receptor-agonist complex.
TAT activity was measured as outlined in the literature by A. Ali et al., J. Med. Chem., 2004, 47, 2441-2452.
HepG2 cells were cultured using MEME media supplemented with 10% (v/v) foetal bovine serum; 2 mM L-glutamine and 1% (v/v) NEAA at 37° C., 5%/95% (v/v) CO2/air. The HepG2 cells were counted and adjusted to yield a density of 0.125×10^6 cells/ml in RPMI 1640 without phenol red, 10% (v/v) charcoal stripped FBS, 2 mM L-glutamine and seeded at 25,000 cells/well in 200 μl into 96 well, sterile, tissue culture micro titre plates, and incubated at 37° C., 5% CO2 for 24 hours
Growth media was removed and replaced with assay media {RPMI 1640 without phenol red, 2 mM L-glutamine+10 μM forskolin}. […] Compounds were serially half log diluted in 100% (v/v) dimethylsupfoxide from a 10 mM stock.
HepG2 cells were then lysed with 30 μl of cell lysis buffer containing a protease inhibitor cocktail for 15 minutes at 4° C. 155 μl of substrate mixture was then added containing 5.4 mM Tyrosine sodium salt, 10.8 mM alpha ketoglutarate and 0.06 mM pyridoxal 5′ phosphate in 0.1M potassium phosphate buffer (pH 7.4). After 2 hours incubation at 37° C. the reaction was terminated by the addition of 15 μl of 10M aqueous potassium hydroxide solution, and the plates incubated for a further 30 minutes at 37° C. The TAT activity product was measured by absorbance at λ 340 nm.
[compound] and fitting the data to a 4 parameter logistic equation.

[3] = target: T3, human recombinant glucocorticoid receptor (Homo sapiens, UniProt P04150); experiment: Glucocorticoid receptor binding displacement assay with 3H-dexamethasone (Example 22); details: Examples 1-15: 3H-dexamethasone displacement assay of Example 22; read-out: GR binding Ki
T3 construct: This GR was a full-length steroid hormone receptor; host or cells: baculovirus-infected insect cells
T3 sequence (P04150 1-777): T1 sequence (P04150 1-777)
Procedure: Binding protocol: Compounds were tested in a binding displacement assay using human recombinant glucocorticoid receptor with ^3H-dexamethasone as the ligand. The source of the receptor was recombinant baculovirus-infected insect cells. This GR was a full-length steroid hormone receptor likely to be associated with heat-shock and other endogenous proteins.
For the IC50 determinations, test compounds were tested at 6 concentrations in duplicate. Test compounds were diluted from 10 mM stock in 100% DMSO. The tested solutions were prepared at 2× final assay concentration in 2% DMSO/assay buffer.
All reagents and the assay plate were kept on ice during the addition of reagents. The reagents were added to wells of a v-bottomed polypropylene plate in the following order: 25 μl of 10 nM 3H-dexamethasone solution, 50 μl of TB/NSB/compound solution and 25 μl of 2 nM GR solution. After the additions, the incubation mixture was mixed and incubated for 2.5 hrs at 4° C.
After 2.5 hrs incubation, unbound counts were removed with dextran coated charcoal (DCC) as follows: 15 μl of DCC solution (10% DCC in assay buffer) was added to all wells and mixed (total volume 115 μl). The plate was centrifuged at 4000 rpm for 10 minutes at 4° C. 75 μl of the supernatants was carefully pipetted into an optiplate. 150 μl of scintillation cocktail were added (Microscint-40, Perkin Elmer). The plate was vigorously shaken for approximately 10 minutes and counted on a Topcount.
The IC50 values were converted to Ki (the inhibition constant) using the Cheng-Prusoff equation.
Reagents: Assay buffer: 10 mM potassium phosphate buffer pH 7.6 containing 5 mM DTT, 10 mM sodium molybdate, 100 μM EDTA and 0.1% BSA.

[4] = target: T4, glucocorticoid receptors (GR) in SW1353/MMTV-5 cells (Homo sapiens, UniProt P04150); experiment: GR reporter gene assay using SW1353/MMTV-5 cells (Example 24); format: cell-based
T4 construct: contains endogenous glucocorticoid receptors; endogenous in cells; host or cells: SW1353/MMTV-5 (human chondrosarcoma, stably transfected with pMAMneo-Luc reporter only)
T4 sequence (P04150 1-777): T1 sequence (P04150 1-777)
Procedure: SW1353/MMTV-5 is an adherent human chondrosarcoma cell line that contains endogenous glucocorticoid receptors. It was transfected with a plasmid (pMAMneo-Luc) encoding firefly luciferase located behind a glucocorticoid-responsive element (GRE) derived from a viral promoter (long terminal repeat of mouse mammary tumor virus). A stable cell line SW1353/MMTV-5 was selected with geneticin, which was required to maintain this plasmid.
SW1353/MMTV-5 cells were distributed in 96-well plates and incubated in medium (without geneticin) for 24 hrs.

SMILES	Ki [1] [nM]	Ki [2] [nM]	Ki [3] [nM]	Ki [4] [nM]
COC[C@@H]1CCCN1c1ccc(S(=O)(=O)N2CCC3=Cc4c(cnn4-c4ccc(F)cc4)C[C@]3(COC)C2)cc1 [Example 18, (R)-1-(4-Fluoro-phenyl)-6-[4-((S)-2-(methoxymethyl)pyrrolidin-1-yl)-benzenesulfonyl]-4a-methoxymethyl-4,4a,5,6,7,8-hexahydro-1H-1,2,6-triaza-cyclopenta[b]naphthalene]	0.5 to 1	50 to 100		
COC[C@]12Cc3cnn(-c4ccc(F)cc4)c3C=C1CCN(S(=O)(=O)c1ccc(N3CC[C@H](OC)C3)cc1)C2 [Example 19, (R)-1-(4-Fluoro-phenyl)-6-[4-((S)-3-methoxypyrrolidin-1-yl)-benzenesulfonyl]-4a-methoxymethyl-4,4a,5,6,7,8-hexahydro-1H-1,2,6-triaza-cyclopenta[b]naphthalene]	< 0.5	> 100		
COC[C@]12Cc3cnn(-c4ccc(F)cc4)c3C=C1CCN(S(=O)(=O)c1ccc(N3CCCCC3)cc1)C2 [Example 20, (R)-1-(4-Fluoro-phenyl)-6-[4-(piperidin-1-yl)-benzenesulfonyl]-4a-methoxymethyl-4,4a,5,6,7,8-hexahydro-1H-1,2,6-triaza-cyclopenta[b]naphthalene]	< 0.5	50 to 100		
O=S(=O)(c1ccc(N2CC[C@@H](F)C2)cc1)N1CCC2=Cc3c(cnn3-c3ccc(F)cc3)C[C@]2(COCC2CC2)C1 [Example 7, (R)-4a-Cyclopropylmethoxymethyl-1-(4-fluoro-phenyl)-6-[4-((R)-3-fluoro-pyrrolidin-1-yl)-benzenesulfonyl]-4,4a,5,6,7,8-hexahydro-1H-1,2,6-triaza-cyclopenta[b]naphthalene]			< 0.5	< 10
O=S(=O)(c1ccc(N2CCCC2)cc1)N1CCC2=Cc3c(cnn3-c3ccc(F)cc3)C[C@]2(COCC2CC2)C1 [Example 8, (R)-4a-Cyclopropylmethoxymethyl-1-(4-fluoro-phenyl)-6-[4-(pyrrolidin-1-yl)-benzenesulfonyl]-4,4a,5,6,7,8-hexahydro-1H-1,2,6-triaza-cyclopenta[b]naphthalene]			≥ 1	< 10
COC[C@]12Cc3cnn(-c4ccc(F)cc4)c3C=C1CCN(S(=O)(=O)c1ccc(N3CCC[C@H]3C)cc1)C2 [Example 17, (R)-1-(4-Fluoro-phenyl)-6-[4-((R)-2-methylpyrrolidin-1-yl)-benzenesulfonyl]-4a-methoxymethyl-4,4a,5,6,7,8-hexahydro-1H-1,2,6-triaza-cyclopenta[b]naphthalene]	< 0.5	> 100		
CCOC(=O)[C@]12Cc3cnn(-c4ccc(F)cc4)c3C=C1CCN(S(=O)(=O)c1cccc(N3CCCC3)c1)C2 [Example 14, (R)-1-(4-Fluoro-phenyl)-6-[3-(pyrrolidin-1-yl)-benzenesulfonyl]-1,4,5,6,7,8-hexahydro-1,2,6-triaza-cyclopenta[b]naphthalene-4a-carboxylic acid ethyl ester]			0.5 to 1	10 to 20
COC[C@]12Cc3cnn(-c4ccc(F)cc4)c3C=C1CCN(S(=O)(=O)c1ccc(N3CC[C@@H](F)C3)cc1)C2 [Example 9, (R)-1-(4-Fluoro-phenyl)-6-[4-((R)-3-fluoro-pyrrolidin-1-yl)-benzenesulfonyl]-4a-methoxymethyl-4,4a,5,6,7,8-hexahydro-1H-1,2,6-triaza-cyclopenta[b]naphthalene]			0.5 to 1	10 to 20
O=S(=O)(c1cccc(N2CC[C@H](F)C2)c1)N1CCC2=Cc3c(cnn3-c3ccc(F)cc3)C[C@]2(COCC2CC2)C1 [Example 2, (R)-4a-Cyclopropylmethoxymethyl-1-(4-fluorophenyl)-6-[3-((S)-3-fluoropyrrolidin-1-yl)-phenyl-3-sulfonyl]-4,4a,5,6,7,8-hexahydro-1H-1,2,6-triaza-cyclopenta[b]naphthalene]			0.5 to 1	< 10
O=C(OCF)[C@]12Cc3cnn(-c4ccc(F)cc4)c3C=C1CCN(S(=O)(=O)c1cccc(N3CC[C@@H](F)C3)c1)C2 [Example 13, (R)-1-(4-Fluoro-phenyl)-6-[3-((R)-3-fluoro-pyrrolidin-1-yl)-benzenesulfonyl]-1,4,5,6,7,8-hexahydro-1,2,6-triaza-cyclopenta[b]naphthalene-4a-carboxylic acid fluoromethyl ester]			0.5 to 1	> 20
